For one assay, the target named is human mu opioid receptor (Homo sapiens, UniProt P35372). The experiment in a line: Radioligand competition binding at the human mu opioid receptor. As to conditions: for nH (Hill coefficient): human mu opioid receptor, competition curves. How it is done:
Compounds of the invention were assayed for activity at the human mu opioid receptor by methods substantially similar to those described in Zhang, et al., (1998) “Dynorphin A as a potential endogenous ligand for four members of the opioid receptor gene family.” J. Pharmacol. Exp. Ther., 286: 136-141.
IC50 values (concentration causing a half-maximal inhibition of control specific binding) and Hill coefficients (nH) were determined by non-linear regression analysis of the competition curves using Hill equation curve fitting.
Inhibition constants (Ki) were calculated from the Cheng Prusoff equation: (Ki=IC50/(1+(L/KD)), where L=concentration of radioligand in the assay, and KD=affinity of the radioligand for the receptor).
Results are expressed as a percent of control specific binding obtained in the presence of compounds 6-alpha-methylnaltrexol, 6-beta-methylnaltrexol and 3-sulfo-methylnaltrexone.

For assay [1], the target named is μ-opioid receptors in the guinea pig ileum (Cavia porcellus, UniProt A0ACM8Q262). Kind of assay: Functional activity: inhibition of DAMGO-induced decrease of twitch contraction amplitude in guinea pig ileum. As to conditions: read-out: IC50 Value (concentration causing a half-maximal inhibition of DAMGO-induced decrease of twitch contraction amplitude). Type of assay: cell-based. On the procedure: The IC50 values (concentration causing a half-maximal inhibition of DAMGO-induced decrease of twitch contraction amplitude) were determined by non-linear regression analysis of the dose-response curves.
Chain of μ-opioid receptors in the guinea pig ileum (A0ACM8Q262 1-400): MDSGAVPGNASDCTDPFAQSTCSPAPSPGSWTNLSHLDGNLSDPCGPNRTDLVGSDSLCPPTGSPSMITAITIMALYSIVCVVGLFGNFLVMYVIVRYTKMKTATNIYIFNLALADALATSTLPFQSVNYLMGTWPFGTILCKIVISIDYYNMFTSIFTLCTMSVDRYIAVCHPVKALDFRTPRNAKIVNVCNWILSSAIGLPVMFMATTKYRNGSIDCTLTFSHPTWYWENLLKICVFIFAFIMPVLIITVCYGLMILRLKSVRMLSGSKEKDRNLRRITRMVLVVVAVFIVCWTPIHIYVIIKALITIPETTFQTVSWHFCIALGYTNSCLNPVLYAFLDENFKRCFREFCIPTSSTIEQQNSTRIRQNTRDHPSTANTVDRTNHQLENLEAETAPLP
Results are expressed as a concentration causing a half-maximal inhibition of DAMGO-induced decrease of twitch contraction amplitude of guinea-pig ileum in the presence of compounds 6-alpha-methylnaltrexol, 6-beta-methylnaltrexol and 3-sulfo-methylnaltrexone.

Chain of human mu opioid receptor (P35372 whole entry): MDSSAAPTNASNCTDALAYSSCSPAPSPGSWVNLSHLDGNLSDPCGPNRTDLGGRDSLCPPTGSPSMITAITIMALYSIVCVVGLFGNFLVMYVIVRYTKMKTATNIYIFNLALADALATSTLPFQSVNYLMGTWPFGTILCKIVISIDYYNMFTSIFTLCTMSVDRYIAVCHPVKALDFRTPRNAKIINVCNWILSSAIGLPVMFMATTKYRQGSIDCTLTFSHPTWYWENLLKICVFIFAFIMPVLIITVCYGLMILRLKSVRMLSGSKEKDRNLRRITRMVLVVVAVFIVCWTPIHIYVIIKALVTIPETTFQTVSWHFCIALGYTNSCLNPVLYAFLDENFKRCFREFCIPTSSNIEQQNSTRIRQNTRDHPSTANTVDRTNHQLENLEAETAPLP

For the compound `C[N+]1(CC2CC2)CC[C@]23c4c5ccc(OS(=O)(=O)O)c4O[C@H]2C(=O)CC[C@@]3(O)[C@H]1C5` (stereo partly drawn) [Compound I-3, 3 sulfo-methylnaltrexone], at human mu opioid receptor, the IC50 was determined as 8300 nM, the Ki worked out at 2200 nM and the “nH (Hill coefficient)” value amounted to 0.8. The IC50 in assay [1] came out at 10000 nM.
Taken in the same sequence, the figures for `C[N+]1(CC2CC2)CC[C@]23c4c5ccc(O)c4O[C@H]2[C@@H](O)CC[C@@]3(O)[C@H]1C5` (stereo partly drawn) [Compound I-1, (5α,6α)-17-cyclopropylmethyl-17-methyl-4,5-epoxy-3,6,14-trihydroxy-morphinan bromide] were 110 nM, 30 nM, 0.8 and 170 nM.
Taken in the same sequence, the figures for `C[N+]1(CC2CC2)CC[C@]23c4c5ccc(O)c4O[C@H]2[C@H](O)CC[C@@]3(O)[C@H]1C5` (stereo partly drawn) [Compound I-2, (5α,6β)-17-cyclopropylmethyl-17-methyl-4,5-epoxy-3,6,14-trihydroxy-morphinan bromide] were 230 nM, 60 nM, 0.9 and 140 nM.
